In PubChem BioAssay (NCI) one finds TGI data, which are given here for 18 compounds.

Common to all, as to experiment: DTP human tumour cell line panel, 48 h
Assay [1] has as its system CCRF-CEM leukemia.
Assay [2] relates to MOLT-4 leukemia.
The subject of assay [3] is LOX IMVI melanoma.
Assay [4] relates to SNB-19 CNS.
The test system of assay [5] is SK-OV-3 ovarian.
The subject of assay [6] is SK-MEL-5 melanoma.
In assay [7] the test system is K-562 leukemia.
For assay [8], the system named is HOP-62 NSCLC.
In assay [9] the test system is OVCAR-8 ovarian.
For assay [10], the system named is UO-31 renal.
Assay [11] concerns MDA-MB-231 breast.
Assay [12] has as its system RPMI-8226 leukemia.
In assay [13] the test system is 786-0 renal.
Assay [14] relates to T-47D breast.
Assay [15] relates to SN12C renal.
The subject of assay [16] is HT29 colon.
For assay [17], the system named is HCC-2998 colon.

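Interpolation was linear, between the two tested concentrations surrounding the appropriate level; five concentrations were tested over 48 hours in 96-well plates. TGI denotes the concentration required for complete inhibition of growth.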 Bounds are passed on as bounds.

In general, TGI refers to the concentration giving total growth inhibition. Take `CC(=O)O[C@H]1C[C@H]2[C@@H](OC(C)=O)/C=C3\C[C@](C)(C(=O)[C@H](O)C(=C1C)C2(C)C)[C@@H](O)C[C@@H]3OC(=O)[C@H](O)[C@H](c1ccccc1)N(C)C`: the TGI in [1], in assay [2], in assay [3], in assay [4], in assay [5] and in [6] was above 100 µM in each case. The TGI in [7], in assay [8], in [9], in assay [10], in [11] and in assay [12] was above 100 µM throughout. The total growth inhibition concentration (TGI) in [13], in [14] and in assay [15] was above 100 µM throughout.
Regarding `COc1cccc2c1OC(c1ccc(Cl)cc1)C([N+](=O)[O-])=C2` (stereo not drawn), the TGI amounted to 4 µM in [1]; 8.58 µM in [2]; 2.71 µM in assay [3]; 17 µM in assay [4]; 13.6 µM in assay [5]; 2.95 µM in [6]. Moreover, the TGI in [7] is 24.3 µM; in assay [8] it was 4.89 µM; in assay [9] it was 10.2 µM; in assay [10], 3.44 µM; in assay [16], 3.21 µM; in assay [11], 13.8 µM. Also, the concentration for total growth inhibition (TGI) in [13] was determined as 3.63 µM; in [14], 9.13 µM; in assay [15], 8.41 µM.
`OCC1OC(c2cccc3cc(O)c(O)cc23)CC1O` (stereo not drawn): the TGI in [2], in assay [3], in assay [4], in [5], in assay [7] and in assay [17] was above 100 µM in each case. For the same compound, the TGI in assay [8], in assay [9], in [10], in [16], in assay [11] and in [12] was above 100 µM throughout. In addition, the concentration for total growth inhibition (TGI) in assay [13], in assay [14] and in assay [15] was above 100 µM throughout.
With `O=C1NC(=O)C(c2c[nH]c3ccccc23)=C1c1cnc[nH]1`, the TGI in assay [1] was above 100 µM; in [2] it was above 100 µM; in assay [3], above 100 µM; in [4], above 100 µM; in assay [5], above 100 µM; in assay [6], 78.1 µM. In addition, the total growth inhibition concentration (TGI) in assay [7], in [8], in [9], in assay [10], in assay [16] and in [11] was above 100 µM each time. The TGI in assay [12], in assay [13], in assay [14] and in assay [15] was above 100 µM throughout.
Turning to `C[N+](CCCl)(CCCl)Cc1cccc2cccc([N+](=O)[O-])c12`, the TGI in assay [1], in assay [2], in assay [3], in assay [4], in assay [5] and in assay [6] was above 100 µM throughout. The TGI in [7], in assay [8], in [9], in assay [10], in assay [16] and in assay [11] was above 100 µM in each case. Further, the TGI in assay [12], in [13], in assay [14] and in assay [15] was above 100 µM in each case.
Turning to `COc1cc(C(=O)n2c3ccc(Br)cc3c3nc4ccccc4nc32)cc(OC)c1OC`, the TGI in assay [1], in assay [2], in assay [3], in assay [4], in assay [6] and in assay [7] was above 100 µM each time. For the same compound, the TGI in [17], in [8], in assay [9], in assay [10], in assay [16] and in assay [11] was above 100 µM in each case. Besides, the TGI in [12], in assay [13], in [14] and in [15] was above 100 µM throughout.
For `CCOC(=O)C1=C(C)N(Cc2ccc(Cl)cc2Cl)C2(O)C=CC(=O)C3C(=O)N(c4ccccc4)C(=O)C132` (stereo not drawn), the TGI in assay [1] stood at 1.4 µM; in assay [2], 4.93 µM; in assay [3], 2.38 µM; in [4], 3.73 µM; in assay [6] it was 8.57 µM; in assay [7], 4.04 µM. For the same compound, the concentration for total growth inhibition (TGI) came out at 3.54 µM in assay [17]; 29.5 µM in assay [8]; 7.89 µM in [9]; 5 µM in assay [10]; 3.5 µM in assay [16]; 6.44 µM in assay [11]. The concentration for total growth inhibition (TGI) in assay [12] is 2.18 µM; in assay [13] it was above 100 µM; in [14], 3.12 µM; in [15], 4.93 µM.
Consider `O=C(O)c1ccc(N=C(C(=Nc2ccc(C(=O)O)cc2)c2ccccc2)c2ccccc2)cc1`, for which the TGI in [2], in [3], in assay [4], in [5], in [7] and in [17] was above 100 µM in each case. Moreover, the concentration for total growth inhibition (TGI) in assay [8], in assay [9], in assay [10], in assay [11], in [12] and in [13] was above 100 µM in each case. Also, the TGI in assay [14] and in assay [15] was above 100 µM in each case.
For the compound `CC(C)(C)[Si](C)(C)OCC1OC(n2ccc(N)nc2=O)C(O[Si](C)(C)C(C)(C)C)C1O[Si](C)(C)C(C)(C)C` (stereo not drawn), the total growth inhibition concentration (TGI) is 3.23 µM in assay [3]; 11.4 µM in assay [4]; 6.36 µM in [5]; 3.43 µM in [6]; 4.85 µM in assay [8]; 5.68 µM in assay [9]. The TGI in assay [10] amounted to 3.07 µM; in [16], 3.02 µM; in assay [11], 22.7 µM; in [13] it was 3.01 µM; in assay [14], 11.6 µM; in [15], 10.2 µM.
As to `Cc1c([N+](=O)[O-])ccc2c(NCCCN(C)C)ccnc12`, the concentration for total growth inhibition (TGI) is above 100 µM in assay [1]; above 100 µM in [2]; 30.9 µM in assay [3]; above 100 µM in assay [5]; 29.6 µM in assay [6]; above 100 µM in assay [7]. Moreover, the TGI in [8] is above 100 µM; in assay [9] it was above 100 µM; in assay [10], 30.5 µM; in [16] it was 34.1 µM; in [11], 56.6 µM; in assay [12], above 100 µM. The TGI in assay [13] was 89.3 µM; in assay [14], 76.5 µM; in [15] it was above 100 µM.
Turning to `Nc1c2c(nc3cc(F)c(F)cc13)CCC2`, the concentration for total growth inhibition (TGI) in assay [2], in assay [3], in [4], in assay [5], in assay [6] and in assay [7] was above 100 µM in each case. Moreover, the TGI in [17] was 35.1 µM; in [8], above 100 µM; in [9], above 100 µM; in assay [10], 20.7 µM; in assay [16], above 100 µM; in assay [11] it was above 100 µM. In addition, the TGI in assay [12], in assay [13], in assay [14] and in [15] was above 100 µM each time.
Take `OCCCCCCCCCCCOc1ccc(C2OCC3(CO2)COC(c2ccc(OCCCCCCCCCCCO)cc2)OC3)cc1` (stereo not drawn): the TGI in assay [2], in [3], in assay [4], in assay [5], in [6] and in [7] was above 50 µM throughout. Also, the TGI in [17], in assay [8], in assay [9], in assay [10], in assay [16] and in assay [11] was above 50 µM in each case. Also, the TGI in assay [12], in assay [13], in assay [14] and in [15] was above 50 µM in each case.
Regarding `O=C1NC(NNc2ccccc2)=N/C1=C\c1ccccc1O`, the TGI in assay [2], in [3], in [4], in assay [5], in assay [7] and in [17] was above 100 µM throughout. Also, the TGI in assay [8], in [9], in [10], in assay [16], in assay [11] and in [12] was above 100 µM each time. Further, the concentration for total growth inhibition (TGI) in assay [13], in assay [14] and in assay [15] was above 100 µM each time.
On to `Cc1cc2c(cc1Cl)SC(NS(=O)(=O)c1ccc(Cl)cc1)=NS2(=O)=O`, for which the TGI in assay [1] was above 100 µM; in [2], 73 µM; in assay [3], above 100 µM; in [4] it was above 100 µM; in [5], above 100 µM; in assay [6], above 100 µM. Besides, the total growth inhibition concentration (TGI) in assay [7], in assay [8], in [10], in assay [16], in assay [11] and in [12] was above 100 µM throughout. Further, the total growth inhibition concentration (TGI) in assay [13], in [14] and in assay [15] was above 100 µM throughout.
For the compound `CC(C)(Br)C(Br)CCC1(C2CO2)CO1` (stereo not drawn), the TGI in assay [1], in assay [2], in assay [4], in assay [5], in [6] and in assay [7] was above 5 µM throughout. For the same compound, the total growth inhibition concentration (TGI) in assay [17], in [8], in assay [9], in assay [10], in assay [16] and in assay [11] was above 5 µM in each case. Also, the TGI in assay [12], in [13], in assay [14] and in assay [15] was above 5 µM throughout.
For `CC(=O)c1ccc(NCc2cc(O)ccc2O)cc1`, the concentration for total growth inhibition (TGI) was above 100 µM in [1]; above 100 µM in assay [2]; 74.3 µM in [3]; above 100 µM in [4]; 59.8 µM in assay [5]; 57.2 µM in assay [6]. In addition, the total growth inhibition concentration (TGI) in [7] is above 100 µM; in assay [8] it was 42 µM; in assay [9], 88.1 µM; in [10] it was 23.9 µM; in assay [16], above 100 µM; in [11], 73.8 µM. The total growth inhibition concentration (TGI) was above 100 µM in assay [12], 27.7 µM in assay [13], 63.1 µM in assay [14] and 92.8 µM in [15].
Take `CC1(C)CC(=O)c2[nH]c3ccccc3c2CC(=O)NCCc2cn1cn2`: the TGI in assay [2], in assay [3], in assay [4], in assay [5], in assay [6] and in assay [7] was above 100 µM each time. Moreover, the TGI in [17], in assay [9], in assay [10], in assay [16], in assay [11] and in assay [13] was above 100 µM in each case. In addition, the concentration for total growth inhibition (TGI) in [14] and in [15] was above 100 µM each time.
Take `NS(=O)(=O)c1ccc(N=Nc2nc3[nH]c(=O)[nH]c(=O)c3[nH]2)cc1`: the concentration for total growth inhibition (TGI) in assay [3], in assay [4], in assay [5], in assay [6], in assay [7] and in [17] was above 100 µM each time. In addition, the TGI in assay [8], in [9], in [10], in assay [16], in assay [11] and in assay [12] was above 100 µM each time. Further, the TGI in assay [13], in assay [14] and in [15] was above 100 µM throughout.
